Source: publication PMC9329436, “Optimization of the 4-anilinoquin(az)oline scaffold as epidermal growth factor receptor (EGFR) inhibitors for chordoma utilizing a toxicology profiling assay platform” (Scientific Reports, 2022)
Where two headings read alike, the source gives them in different places.

Tests used:
Format in all cases: biochemical
[1] = target: 320 wild-type protein kinases (Homo sapiens, UniProt P49137); conditions: singlicate
Text: (§1) Table S4. Profiling of two compounds at two concentrations against 320 wild-type protein kinases; singlicate measurement; Residual activities (% of control).

[2] = target: 320 wild-type protein kinases (Homo sapiens, UniProt P51617); conditions: singlicate
320 wild-type protein kinases (Homo sapiens, UniProt P51617), sequence (P51617 whole entry): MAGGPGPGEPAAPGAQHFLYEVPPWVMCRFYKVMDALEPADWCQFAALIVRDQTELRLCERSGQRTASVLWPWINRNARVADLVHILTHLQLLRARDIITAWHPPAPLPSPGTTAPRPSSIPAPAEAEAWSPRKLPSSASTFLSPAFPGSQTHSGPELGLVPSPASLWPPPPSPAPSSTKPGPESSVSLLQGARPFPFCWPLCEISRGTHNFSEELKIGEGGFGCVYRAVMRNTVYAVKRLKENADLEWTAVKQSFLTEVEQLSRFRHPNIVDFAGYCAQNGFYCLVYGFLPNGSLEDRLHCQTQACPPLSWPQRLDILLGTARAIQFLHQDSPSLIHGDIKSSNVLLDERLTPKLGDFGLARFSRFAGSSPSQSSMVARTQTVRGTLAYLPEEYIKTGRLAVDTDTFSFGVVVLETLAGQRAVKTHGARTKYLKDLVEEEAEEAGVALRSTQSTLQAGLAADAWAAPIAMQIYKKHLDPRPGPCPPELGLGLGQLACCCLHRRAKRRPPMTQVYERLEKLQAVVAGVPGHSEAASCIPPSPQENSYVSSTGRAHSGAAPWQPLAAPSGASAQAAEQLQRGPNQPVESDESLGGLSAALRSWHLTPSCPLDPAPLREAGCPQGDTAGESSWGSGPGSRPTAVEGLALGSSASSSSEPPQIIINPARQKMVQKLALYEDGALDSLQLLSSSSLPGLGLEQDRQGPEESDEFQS
Text: as §1

[3] = target: 320 wild-type protein kinases (Homo sapiens, UniProt Q13164); conditions: singlicate
320 wild-type protein kinases (Homo sapiens, UniProt Q13164), sequence (Q13164 whole entry): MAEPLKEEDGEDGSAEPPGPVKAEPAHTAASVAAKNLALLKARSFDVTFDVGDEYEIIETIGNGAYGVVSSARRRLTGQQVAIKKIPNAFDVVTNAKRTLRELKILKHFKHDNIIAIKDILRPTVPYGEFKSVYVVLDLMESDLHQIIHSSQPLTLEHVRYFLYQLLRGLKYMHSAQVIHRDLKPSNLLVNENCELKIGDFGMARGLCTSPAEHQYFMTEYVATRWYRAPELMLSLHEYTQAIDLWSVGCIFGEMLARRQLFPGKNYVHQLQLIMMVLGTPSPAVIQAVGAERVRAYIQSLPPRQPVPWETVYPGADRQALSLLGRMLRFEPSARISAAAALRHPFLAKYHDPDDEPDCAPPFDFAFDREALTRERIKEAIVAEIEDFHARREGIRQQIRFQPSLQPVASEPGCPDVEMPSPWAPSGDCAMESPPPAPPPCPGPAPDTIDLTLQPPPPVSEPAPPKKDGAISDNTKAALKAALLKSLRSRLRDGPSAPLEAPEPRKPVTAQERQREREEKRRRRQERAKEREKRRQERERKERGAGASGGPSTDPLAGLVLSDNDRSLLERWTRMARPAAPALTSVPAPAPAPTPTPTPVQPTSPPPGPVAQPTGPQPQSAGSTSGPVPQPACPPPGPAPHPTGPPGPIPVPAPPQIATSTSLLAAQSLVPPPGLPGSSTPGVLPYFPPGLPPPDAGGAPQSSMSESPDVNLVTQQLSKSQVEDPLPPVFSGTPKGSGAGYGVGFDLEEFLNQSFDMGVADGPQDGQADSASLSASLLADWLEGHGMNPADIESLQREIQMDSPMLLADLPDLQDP
Text: as §1

[4] = target: 320 wild-type protein kinases (Homo sapiens, UniProt Q9Y463); conditions: DYRK1B, singlicate
320 wild-type protein kinases (Homo sapiens, UniProt Q9Y463), sequence (Q9Y463 whole entry): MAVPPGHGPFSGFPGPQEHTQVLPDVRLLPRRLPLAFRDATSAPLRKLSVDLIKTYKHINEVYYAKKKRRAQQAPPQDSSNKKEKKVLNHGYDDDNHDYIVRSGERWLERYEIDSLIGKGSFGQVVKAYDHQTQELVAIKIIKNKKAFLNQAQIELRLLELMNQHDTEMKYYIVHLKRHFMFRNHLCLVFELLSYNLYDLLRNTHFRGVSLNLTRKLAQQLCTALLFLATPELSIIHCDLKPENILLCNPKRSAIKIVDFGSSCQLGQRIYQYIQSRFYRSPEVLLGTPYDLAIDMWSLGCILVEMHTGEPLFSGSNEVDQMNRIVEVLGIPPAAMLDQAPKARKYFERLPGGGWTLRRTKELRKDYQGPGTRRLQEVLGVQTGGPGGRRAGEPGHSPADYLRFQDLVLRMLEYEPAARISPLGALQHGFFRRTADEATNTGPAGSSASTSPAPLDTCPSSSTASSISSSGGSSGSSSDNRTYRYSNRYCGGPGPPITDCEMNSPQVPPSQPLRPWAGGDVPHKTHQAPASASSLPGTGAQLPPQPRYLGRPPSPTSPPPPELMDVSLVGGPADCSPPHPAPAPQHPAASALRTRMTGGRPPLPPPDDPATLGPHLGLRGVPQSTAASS
Text: as §1

[5] = target: T1, 320 wild-type protein kinases (Homo sapiens, UniProt Q15139); conditions: PKC-mu, singlicate
T1 sequence (Q15139 1-912): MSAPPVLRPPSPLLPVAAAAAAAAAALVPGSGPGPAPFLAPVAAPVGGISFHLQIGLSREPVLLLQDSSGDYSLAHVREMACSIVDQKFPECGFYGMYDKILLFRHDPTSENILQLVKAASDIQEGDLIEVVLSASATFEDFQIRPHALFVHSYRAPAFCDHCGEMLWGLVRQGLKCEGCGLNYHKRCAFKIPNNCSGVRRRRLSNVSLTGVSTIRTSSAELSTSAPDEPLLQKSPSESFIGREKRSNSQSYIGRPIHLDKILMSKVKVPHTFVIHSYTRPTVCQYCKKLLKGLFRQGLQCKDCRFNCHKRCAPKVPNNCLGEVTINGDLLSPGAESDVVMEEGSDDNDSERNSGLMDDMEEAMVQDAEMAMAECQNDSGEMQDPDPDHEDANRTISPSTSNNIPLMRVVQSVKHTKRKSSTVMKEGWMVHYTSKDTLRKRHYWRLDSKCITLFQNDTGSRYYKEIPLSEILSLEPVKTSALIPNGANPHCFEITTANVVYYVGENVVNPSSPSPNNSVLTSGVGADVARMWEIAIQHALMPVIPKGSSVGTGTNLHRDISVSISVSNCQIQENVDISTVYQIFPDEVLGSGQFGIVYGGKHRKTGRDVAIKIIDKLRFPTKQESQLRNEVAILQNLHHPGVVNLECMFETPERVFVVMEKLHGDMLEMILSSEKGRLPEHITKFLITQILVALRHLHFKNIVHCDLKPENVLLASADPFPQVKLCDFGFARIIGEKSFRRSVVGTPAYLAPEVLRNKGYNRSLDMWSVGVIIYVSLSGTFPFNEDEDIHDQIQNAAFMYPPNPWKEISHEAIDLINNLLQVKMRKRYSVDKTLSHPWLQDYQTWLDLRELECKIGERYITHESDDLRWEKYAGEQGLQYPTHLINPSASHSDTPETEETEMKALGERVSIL
Text: as §1

[6] = target: T2, 320 wild-type protein kinases (Homo sapiens, UniProt P42679); conditions: MATK, singlicate
T2 sequence (P42679 1-507): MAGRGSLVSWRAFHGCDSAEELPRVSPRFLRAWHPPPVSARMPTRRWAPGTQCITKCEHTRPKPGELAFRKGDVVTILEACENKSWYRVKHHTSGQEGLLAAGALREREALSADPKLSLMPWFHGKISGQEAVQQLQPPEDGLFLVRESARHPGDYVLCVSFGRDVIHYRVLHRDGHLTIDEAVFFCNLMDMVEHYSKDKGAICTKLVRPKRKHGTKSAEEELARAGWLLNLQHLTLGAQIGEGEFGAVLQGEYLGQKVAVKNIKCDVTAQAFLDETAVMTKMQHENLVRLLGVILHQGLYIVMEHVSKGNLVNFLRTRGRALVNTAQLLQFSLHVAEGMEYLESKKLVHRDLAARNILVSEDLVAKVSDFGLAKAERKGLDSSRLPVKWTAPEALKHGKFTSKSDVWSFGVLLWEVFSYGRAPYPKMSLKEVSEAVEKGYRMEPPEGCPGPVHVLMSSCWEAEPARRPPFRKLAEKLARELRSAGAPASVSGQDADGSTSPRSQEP
Text: as §1

[7] = target: T3, 320 wild-type protein kinases (Homo sapiens, UniProt Q13163); conditions: singlicate
T3 sequence (Q13163 1-448): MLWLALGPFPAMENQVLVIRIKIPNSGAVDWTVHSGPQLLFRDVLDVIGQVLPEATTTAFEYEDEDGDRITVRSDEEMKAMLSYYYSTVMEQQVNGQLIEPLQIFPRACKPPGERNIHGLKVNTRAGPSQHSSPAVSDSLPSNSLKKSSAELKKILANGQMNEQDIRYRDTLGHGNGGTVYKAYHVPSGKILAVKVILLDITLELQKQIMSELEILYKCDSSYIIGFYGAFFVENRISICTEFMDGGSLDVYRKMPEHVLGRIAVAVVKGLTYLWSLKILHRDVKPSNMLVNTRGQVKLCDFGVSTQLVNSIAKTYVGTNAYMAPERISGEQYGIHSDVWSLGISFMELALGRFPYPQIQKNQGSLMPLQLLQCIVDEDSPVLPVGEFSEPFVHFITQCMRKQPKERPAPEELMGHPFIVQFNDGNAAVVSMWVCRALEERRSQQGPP
Text: as §1

320 wild-type protein kinases (Homo sapiens, UniProt P49137), sequence (P49137 whole entry): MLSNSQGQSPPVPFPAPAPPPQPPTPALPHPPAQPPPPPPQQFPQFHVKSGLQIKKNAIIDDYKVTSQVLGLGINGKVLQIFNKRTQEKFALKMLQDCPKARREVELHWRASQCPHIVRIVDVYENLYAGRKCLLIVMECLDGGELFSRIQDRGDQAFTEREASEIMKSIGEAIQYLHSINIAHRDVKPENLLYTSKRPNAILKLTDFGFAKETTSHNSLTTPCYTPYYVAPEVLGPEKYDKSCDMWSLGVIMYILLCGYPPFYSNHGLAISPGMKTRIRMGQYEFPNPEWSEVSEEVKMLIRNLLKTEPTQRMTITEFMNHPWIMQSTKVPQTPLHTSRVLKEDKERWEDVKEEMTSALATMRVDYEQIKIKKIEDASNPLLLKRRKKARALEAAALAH

| Compound | Residual activity ([1]; MAPKAPK2, 1.0E-07 M) | Residual activity ([2]; IRAK1, 1.0E-06 M) | Residual activity ([2]; IRAK1, 1.0E-07 M) | Residual activity ([3]; ERK5, 1.0E-06 M) | Residual activity ([3]; ERK5, 1.0E-07 M) | Residual activity ([4]; 1.0E-06 M) | Residual activity ([4]; 1.0E-07 M) | Residual activity ([5]; 1.0E-06 M) | Residual activity ([5]; 1.0E-07 M) | Residual activity ([6]; 1.0E-06 M) | Residual activity ([6]; 1.0E-07 M) | Residual activity ([7]; MEK5, 1.0E-06 M) | Residual activity ([7]; MEK5, 1.0E-07 M) | Residual activity ([1]; MAPKAPK2, 1.0E-06 M) |
| --- | --- | --- | --- | --- | --- | --- | --- | --- | --- | --- | --- | --- | --- | --- |
| C#Cc1cc(Nc2ncnc3cc(I)ccc23)ccc1Cl [Compound 41] | 139 % of control | 103 % of control | 109 % of control | 74 % of control | 92 % of control | 90 % of control | 116 % of control | 89 % of control | 111 % of control | 95 % of control | 100 % of control | 100 % of control | 103 % of control | – |
| C#Cc1cc(Nc2ncnc3cc(OC)c(OC)cc23)ccc1Cl [Compound 45] | – | 105 % of control | 109 % of control | 85 % of control | 96 % of control | 111 % of control | 105 % of control | 73 % of control | 92 % of control | 95 % of control | 108 % of control | 108 % of control | 107 % of control | 138 % of control |
